Experimental findings from a melting point compilation (Tetko et al.; mined from patent text by program, amines drawn as free bases though some values may be those of a salt) are described below.

Non-standard residues stand in square brackets, D forms with d. Residues, ends and D or L forms follow the SMILES beside them. *: point of attachment. NHPhenethyl = c1ccc(CCN*)cc1; pGlu = O=C1CC[CH](C(=O)O)N1

The compound `CC1(C)CC(OC(=O)CCCCCCCCC(=O)OC2CC(C)(C)N(OCc3ccccc3)C(C)(C)C2)CC(C)(C)N1OCc1ccccc1` came in with a melting point of 58 to 61 °C.

For `CCOc1cc(C(=O)OC)cc(OCC)c1N=Nc1ccccc1`, the melting point came out at 92 °C.

As to `CCOC(=O)c1cc2c(ccc3nc(O)c(O)nc32)s1`, the melting point is 357 °C.

The compound `OC(CSc1ccnc2ccccc12)c1ccc2ccccc2c1` (stereo not drawn) yielded a melting point of 170 to 172 °C.

For `CCOC(=O)c1nc(-c2ccccc2F)c(-c2ccc(=O)n(C(C)C)n2)s1`, the melting point fell in the range of 140 to 141 °C.

Turning to `COc1cc2c(cc1OC)/C(=N/OCc1ccc3nonc3c1)CCC2`, the melting point lay in the range of 139 to 140 °C.

`CCCCC(=O)OCCOCn1cnc2c(=O)[nH]c(N)nc21`: the melting point fell in the range of 215 to 217 °C.

Take `Cc1ccc(NS(=O)(=O)c2ccc([N+](=O)[O-])cc2)cc1`: the melting point lay in the range of 170 to 172 °C.

`Cn1ccc2cc(N3Cc4ccc(N5CCCC5)cc4C3=O)ccc21` returned a melting point of 252 to 253 °C.

As to `CCC(=O)N1N=C(c2ccc(N)c(C)c2)c2cc(Cl)ccc2C=C1C`, the melting point fell in the range of 218 to 221 °C.

`CCN(CC)C(=O)c1ccc2ccccc2c1-c1ccc(C)cc1`: the melting point lay within 181 to 183 °C.

In turn, `Nc1nnn(CC(F)(F)F)n1` showed a melting point of 95 to 97 °C.

In turn, `CCCCCCN(CCCCCC)C(Nc1ccc(OC)cc1OC)=C1C(=O)COC1=O` came in with a melting point of 96 to 98 °C.

`Cc1cc(Cn2c(-c3ccccc3)nc(Cl)c2CO)ccc1OCc1ccccc1` displayed a melting point of 184 to 186 °C.

In turn, `Cc1nc2ccc(C)c(Sc3ccncc3)c2c(=O)[nH]1` displayed a melting point of 235 to 238 °C.

In turn, `CCCCOC(=O)COc1cc(F)ccc1C(=O)NCc1cccc([N+](=O)[O-])c1` returned a melting point of 80 to 81 °C.

On to `CC12CCCC(C1)OC2=O` (stereo not drawn), for which the melting point lay within 37 to 38 °C.

The compound `CCCc1c(OCCCCCOc2ccc(C(=O)Cc3ccccc3C(=O)O)cc2CCC(=O)O)ccc2c1OCCC2=O` showed a melting point of 178 to 182 °C.

`CCCCOc1ccc(-c2ccc([C@H]3CC[C@H](CCC)CC3)c(C#N)c2C#N)cc1` returned a melting point of 115 °C.

With `CCOCc1nc2c(N)nc3cc(O)ccc3c2n1CC(C)(C)NC(=O)NC(C)C`, the melting point was 163 to 168 °C.

As for `O=C(O)Cn1c(=S)sc2ccccc21`, the melting point was in the range of 187 to 189 °C.

With `COc1ccccc1C(Cn1ccnc1)S(=O)(=O)c1ccc(C(=O)O)cc1` (stereo not drawn), the melting point was in the range of 134 to 138 °C.

The compound `CC(=O)Nc1ccc(C(C)(C)C)cc1CN(C)C1CCCCC1` returned a melting point of 111 to 112 °C.

In turn, `N[C@@H](Cc1ccc([N+](=O)[O-])cc1I)C(=O)O` registered a melting point above 200 °C.

As for `Fc1ccc2c(C3CCN(C(=S)Nc4ccccc4)CC3)nn(-c3ccccc3)c2c1`, the melting point lay in the range of 151 to 153 °C.

With `C=C(C(=O)NCc1ccccc1)c1ccccc1`, the melting point was in the range of 84 to 86 °C.

`NC(=S)c1cc(Cl)c(Cl)c(Cl)n1` yielded a melting point of 168 to 169 °C.

`O=c1cc(-c2ccccc2)oc2cc(OCC3CO3)ccc12` (stereo not drawn) yielded a melting point of 123 to 130 °C.

For `CC1(C(=O)Nc2ccc(-n3nc(C(F)(F)F)cc3C(F)(F)F)cc2)CC1(Cl)Cl` (stereo not drawn), the melting point lay in the range of 143 to 145 °C.

`Cc1nc(N2CCN(Cc3ccc(F)cc3)C2=O)sc1C(=O)N(C)C` showed a melting point of 162 to 164 °C.

As for `CN(CCO)C(=O)NC(CS)Cc1ccccc1` (single isomer, unassigned; (+)), the melting point is 86 °C.

Consider `N#Cc1cccnc1-n1cc(-c2ccc(Oc3ccccc3)cc2)c2c(N)ncnc21`, for which the melting point stood at 242 °C.

`COC(=O)c1cccc(Sc2ccc([N+](=O)[O-])cc2)c1`: the melting point was in the range of 98 to 100 °C.

In turn, `COc1ccc(-c2nc3cc(F)ccc3s2)cc1OC(=O)c1ccccc1Cl` came in with a melting point of 190 °C.

In turn, `C=CCOC(=O)CCC(NC(=O)OCC1c2ccccc2-c2ccccc21)C(=O)OCc1ccccc1` (stereo not drawn) yielded a melting point of 66.2 to 67.1 °C.

`CCCN1CCO[C@@H]2c3cc4c(=O)n(OC)ccc4cc3CC[C@H]21` showed a melting point of 142 to 145 °C.

With `COC1=C(OC)C(=O)C2=C(CC(CCCCCCCCO)C2)C1=O`, the melting point is 56 to 58 °C.

Take `NC(=O)CC(NC(=O)C(CO)NC(=O)CNC(=O)CNC(=O)C1CCC(=O)N1)C(=O)NC(Cc1ccccc1)C(=O)NCCc1ccccc1` (stereo not drawn) ([pGlu]GGSNF-NHPhenethyl; configuration not given here): the melting point was in the range of 209 to 211 °C.

The compound `CCCc1nn(C)c2c(=O)n(CCCNc3ccc(OC(C)(C)C(=O)O)cc3)c(C)nc12` returned a melting point of 104 to 106 °C.

`CCCNC(=O)c1ccc(C=O)cc1` displayed a melting point of 71 to 74 °C.

`CC(C)(C(=O)O)C(=O)NCCc1cn(C(c2ccccc2)(c2ccccc2)c2ccccc2)cn1` showed a melting point of 161 to 162 °C.

The compound `N#Cc1cnc2cc(-c3ccc(C=O)cc3)sc2c1Cl` yielded a melting point of 300 to 305 °C.

The compound `CCOC(=O)c1cn(-c2ccccc2)nc1NC=O` gave a melting point of 135 to 136 °C.

As to `COc1nccc2c(N)cccc12`, the melting point fell in the range of 53 to 57 °C.

On to `C=CCc1ccc(OCC2CCCO2)c2c(=O)cc(C(N)=O)oc12` (stereo not drawn), for which the melting point lay in the range of 212 to 214 °C.

`COc1ccc(Nc2ccc(C)cc2)cc1` displayed a melting point of 81 to 82 °C.

`Cn1c(=O)[nH]c2ncccc2c1=O` registered a melting point of 272 to 274 °C.

Take `OCc1cc2cc(-c3ccsc3)ccc2o1`: the melting point lay within 122 to 124 °C.

As for `O=C(NC1CC1)c1ccc(N2CCNCC2)cc1`, the melting point lay within 175 to 177 °C.

In turn, `COCc1ccc2c(c1)C=Cc1cc(C)ccc1C2c1cn(Cc2nc(C(=O)O)cs2)c(=O)[nH]c1=S` (stereo not drawn) displayed a melting point of 140 °C.

For `O=Cc1c[nH]c2c1ccc1c3cc(Br)ccc3[nH]c12`, the melting point is above 250 °C.

The compound `CCO[C@@H](Cc1ccc2c(ccn2Cc2nc(-c3ccccc3OC)oc2C)c1)C(=O)O` displayed a melting point of 59 to 60 °C.

In the case of `CCOC(=O)c1cn(CCc2cccc(C(F)(F)F)c2)c2cc(C3CC3)nn2c1=O`, the melting point was 140 to 145 °C.

`CC(C)C[C@H](NC(=O)OCc1ccccc1)C(=O)N[C@H]1CCOC1=O` displayed a melting point of 130 to 131 °C.

`CN(C)C(=O)N(C)c1nnc(C(C)(C)CCl)s1` had a melting point of 80 to 82 °C.

With `Cc1nc(C)c(-c2ccnc(Nc3ccc(N4CCOCC4)c(C)c3)n2)s1`, the melting point was 164 to 166 °C.

In turn, `CP(=O)(CCl)C1CCCCC1` (stereo not drawn) returned a melting point of 51 to 53 °C.

With `Cc1cccc(C(O)CNC(N)=C(CCSCc2cc(C)c(CN(C)C)s2)[N+](=O)[O-])c1` (stereo not drawn), the melting point lay within 88 to 89 °C.

Compound `COc1cc(Nc2c([N+](=O)[O-])ccc(Cl)c2C(=O)O)cc(OC)c1` displayed a melting point of 174 to 177 °C.

`CC1(C)CSc2sc(S(N)(=O)=O)cc2C1O` (stereo not drawn) displayed a melting point of 158 to 159 °C.

As to `O=CC(CC(=O)O)NC(=O)C1CCCN2C(=O)CCC(NC(=O)c3ccccc3)C(=O)N12` (stereo not drawn), the melting point is 143 to 147 °C.

Consider `COc1ccc(-c2nc(CCn3ccnc3)nc3cc(OC)c(OC)cc23)cc1OC`, for which the melting point lay within 147 to 148 °C.

`COCN(C(=O)CCl)c1c([N+](=O)[O-])cccc1[N+](=O)[O-]` had a melting point of 106 to 108 °C.
